US20190298650A1, “FORMULATION AND COMPOSITION FOR PREVENTING AND/OR DISSOLVING BIOFILM ON THE SKIN OF A DOMESTIC ANIMAL” (Dechra Veterinary Products LLC, priority 2018, published 2019)
≈ marks a conversion by molar mass, not a printed value.

Assays:
[1] = tested on: Pseudomonas spp isolates from clinical canine otitis cases (biofilm); assay: Biofilm breaking assay (crystal violet OD570 on a 24 h pre-formed biofilm); assay type: cell-based; settings: only NAC 5 mg/mL, 14 isolates
Protocol: One hundred Pseudomonas spp isolates from clinical canine otitis cases from the UK (96), Dubai (3) and Malta (1) were submitted to NationWide Laboratories Knutton (CAPL) for routine culture and susceptibility testing over a 12 month period. Four isolates were from two dogs with bilateral otitis. […] Isolates were then stored frozen of beads (ProLab UK) at -20° C. […] Negative control wells, in triplicate, contained 180 μL of LBB and 20 μL of distilled, sterile water. Plates were then incubated for 24 hours at 37° C. Contents of the wells were discarded prior to washing three times in phosphate buffered saline (PBS) at pH 7.2. […] 100 μL of Luria-Bertani enrichment broth (LBB) and 100 μL of sterile, distilled water for negative control. […] For the biofilm breaking assay the following dilutions where tested. The dilutions were made using a Broth (LBB). […] Plates were then incubated for another 24 hours period. Contents of the wells were discarded prior to washing three times in phosphate buffered saline (PBS) at pH 7.2. […] The contents were removed by micropipetting before plates rinsed thoroughly under running water. […] Plates were covered to prevent evaporation.

[2] = tested on: Pseudomonas spp isolates from clinical canine otitis cases; assay: Biofilm prevention assay (MIC read visually, then crystal violet OD570); assay type: cell-based; settings: 28 isolates, LBB, 24 h at 37° C., NAC alone
Source text: One hundred Pseudomonas spp isolates from clinical canine otitis cases from the UK (96), Dubai (3) and Malta (1) were submitted to NationWide Laboratories Knutton (CAPL) for routine culture and susceptibility testing over a 12 month period. Four isolates were from two dogs with bilateral otitis.
The dilutions were made using a Broth (LBB).
Contents of the wells were discarded prior to washing three times in phosphate buffered saline (PBS) at pH 7.2. […] The contents were removed by micropipetting before plates rinsed thoroughly under running water. […] Plates were covered to prevent evaporation.

**Q.** Which “optical density (OD570) Max.” value [1] does the source give for `CC(=O)N[C@@H](CS)C(=O)O` [NAC, (2R)-2-acetamido-3-sulfanylpropanoic acid] here?
**A.** Its value is 1.40.

**Q.** And the “optical density (OD570) Mean” value [1]?
**A.** The value was 0.38.

**Q.** What about the “optical density (OD570) Median” value [1] of the same compound?
**A.** The value was 0.26.

**Q.** What about the “optical density (OD570) Min.” value [1] of the same compound?
**A.** Its value is −0.03.

**Q.** What about the MIC [2] of the same compound?
**A.** The MIC was 50 mg/mL (≈ 306 mM).
